Non-standard residues stand in square brackets, D forms with d. Residues, ends and D or L forms follow the SMILES beside them. pGlu = O=C1CC[C@@H](C(=O)O)N1; azaGly = NNC(=O)O

Assay [1] concerns human term placental explants. In words: Static explant culture, release of hCG, progesterone, PGE2. The format is cell-based. An excerpt:
The biological activity of the newly synthesized non-mammalian GnRH analogs was studied using a static implant culture system. This system allows for inexpensive extended activity studies. Mammalian GnRH action on the human placenta release of hCG, progesterone and prostaglandins were defined using this system. Replicate cultures were studied, thus allowing for comparison of different doses of each non-mammalian GnRH analog to mammalian GnRH (SEQ ID NO: 5), as well as direct competition assays. […] These studies were repeated using different human placentas. Siler-Khodr T M, Khodr G S, Valenzuela G, Rhode J 1986 Gonadotropin-releasing hormone effects on placental hormones during gestation: II. Progesterone, estrone, estradiol and estriol. Biol Reprod 34:255-264; Siler-Khodr T M, Khodr G S, Valenzuela G, Rhode J 1986 Gonadotropin-releasing hormone effects on placental hormones during gestation: 1 Alpha-human chorionic gonadotropin, human chorionic gonadotropin and human chorionic somatomammotropin. Biol Reprod 34:245-254; Siler-Khodr T M, Khodr G S, Valenzuela G, Harper J, Rhode J 1986 GnRH effects on placental hormones during gestation. 111 Prostaglandin E, prostaglandin F, and 13, 14-dihydro-15-keto-prostaglandin F. Biol Reprod 35:312-319.
In these and additional studies, an explant culture system was used to determine the effect of mammalian GnRH (SEQ ID NO: 5), chicken II GnRH (SEQ ID NO: 6), or the D-Arg(6)-chicken II GnRH-aza-Gly(10)-amide analog (SEQ ID NO: 2) on the release of the hCG, progesterone, and prostaglandin E2. Human term placentas were dissected free of membranes, minced into fragments of 5 mm, rinsed in medium, and a total weight of ˜100 mg (20 explants) was placed on a sterile filter paper resting on an organ culture grid such that they touched the surface of the culture medium, but were not immersed in it. The medium contained penicillin, streptomycin, and fungizone at 100 U/mL, 100 μg/mL, and 2.5 μg/mL respectively with and without varying doses of GnRH isoforms or analogs was added to each Petri dish. Triplicate chambers for each media were made and incubated at 37 C in a humidified chamber with an atmosphere of 5% CO2 and 95% air. Spent media were collected and replaced after 2 hours, 24 hours, and 48 hour of culture and stored frozen at −20° C. until assayed for hormones. HCG, progesterone, and PGE2 were measured using specific double antibody procedures as described previously. The chicken II GnRH analog (SEQ ID NO: 2) was studied using four different human term placentas, and the native chicken II GnRH isoform was also studied using one human term placenta. Gibbons J M, Mitnick M, Chieffo V 1975 In vitro biosynthesis, of TSH- and LH-releasing factors by the human placenta. Am J Obstet Gynecol 121:127-131.

The next assay deals with baboon granulosa cells. In words: Baboon granulosa cell culture, progesterone release. The format is cell-based. An excerpt: The biopotency of chicken II GnRH analogs (SEQ ID NO: 2) in the regulation of baboon ovarian function was studied. The effect of mammalian and chicken II GnRH analogs (SEQ ID NO: 2) on ovarian progesterone release was studied using granulosa cell cultures. The dose-related action of a stable analog of chicken II GnRH (SEQ ID NO: 2) on progesterone production was defined using baboon granulosa cell cultures. After a two hour basal study period, the medium was supplemented with either Buserilin (SEQ ID NO: 10) (10^−7) or a chicken II GnRH analog (SEQ ID NO: 2) (10^−9, 10^−8, 10^−7, 10^−6 M) leaving four control wells. […] This inhibition was sustained after 48 hours of treatment. […] In addition, the action of the analog on three different stromal and three different epithelial endometrial primary cell lines (after 3-5 passages) has been studied and PGE2 determined as indicated in FIG. 31.

Assay [2] deals with baboon endometrium (stroma and epithelium) receptor. In words: Baboon endometrium receptor binding. Particulars: read-out: receptor affinity. An excerpt:
Due to the limited number of cells it was not possible to precisely define the affinity of this receptor.

As for `N=C(N)NCCC[C@@H](NC(=O)[C@H](Cc1c[nH]cn1)NC(=O)[C@H](CO)NC(=O)[C@H](Cc1c[nH]c2ccccc12)NC(=O)[C@H](Cc1c[nH]cn1)NC(=O)[C@@H]1CCC(=O)N1)C(=O)N[C@@H](Cc1c[nH]c2ccccc12)C(=O)N[C@@H](Cc1ccc(O)cc1)C(=O)N1CCC[C@H]1C(=O)NNC(N)=O` [D-Arg(6)-chicken II GnRH-aza-Gly(10)-amide] ([pGlu]HWSH[dR]WYP[azaGly]-NH2), the “progesterone release at higher concentrations” value in assay [1] is on record as “also inhibited”. The “effect on hCG at higher concentrations” value in assay [1] (1-9 μM) was “inhibition of hCG”. The PGE2 release result in assay [1] (2 and 24 hours) is given as “not significantly changed”. For the same compound, in assay [1] (P<0.05), the “hCG release after 2, 24 and 48 hours of treatment” value is recorded as “significant dose-related inhibition”. The “stimulation of hCG” value in assay [1] (first two hours, lowest concentration 250 nM) is on record as “as much as a three fold stimulation”. For the same compound, the “hCG in presence of exogenous GnRH” value in assay [1] (three placentas, later studies) is given as “inhibition of hCG”. Moreover, in the assay on baboon granulosa cells (10^−8M, within 24 hours), the “progesterone release, of untreated controls” value worked out at 31%. Also, in the assay with baboon granulosa cells (chicken II analog 10^−9 to 10^−6 M, Buserelin 10^−7), the “effect on progesterone release, in words” value is “dose-related inhibition of progesterone release”. Besides, in the assay with baboon granulosa cells (within 24 hours), the “concentration of maximal inhibition of progesterone release” value is listed as 10^−8 M. Besides, in assay [2], the Kd is about 60 nM.
